pIC50: −log10 of the molar value. Results filed as inconclusive are left out. Active and inactive are the calls of the source. How the calls were made is not given here.
Target: Cathepsin B (Homo sapiens) (UniProt P07858)
Test: CTSB inhibitor potency, confirmatory, biochemical, dose-response (AID 820)
Details: purified cathepsin B enzyme activity, signal read-out

Structure (SMILES)	IC50	pIC50
CCOC(=O)c1sc(=NC(=O)c2ccc(S(=O)(=O)N3CC(C)OC(C)C3)cc2)n(C)c1C (stereo unspecified)	> 50 µM (inactive)	
CC(=O)OC1(C(F)(F)F)Oc2ccccc2NC1=O (stereo unspecified)		6.07
Nc1nonc1-c1noc(N2CCCCC2)n1	> 50 µM (inactive)	
COc1ccc(C)c(Cn2c(-c3nonc3N)nc3ccccc32)c1		4.43
CCn1nc(-c2cccs2)nc2c(=O)n(C)c(=O)nc1-2		7.14
Nc1nonc1-c1nc2ccccc2n1CC(=O)N1CCCCC1		4.35
COc1cc2c(cc1OC)-c1c(OC)c(OC)cc3c1C(C2)N(C)CC3 (stereo unspecified)	> 50 µM (inactive)	
N#Cc1c(N)sc(=S)c2c1CCN(Cc1ccccc1)C2		5.79
COc1nc(N(C#N)CC(N)=O)nc(N2CCCC2)n1		4.85
COC(=O)c1ccccc1NC(=O)Cn1c(-c2nonc2N)nc2ccccc21	> 50 µM (inactive)	
COc1ccc(C(=O)C(OC(=O)CNC(=O)c2ccco2)c2ccccc2)cc1 (stereo unspecified)		4.74
O=C1CC(c2ccco2)Cc2nc(N3CCc4ccccc4C3)ncc21 (stereo unspecified)	> 50 µM (inactive)	
Cc1ccc(S(=O)(=O)n2nc(OC(=O)c3cccs3)cc2N)cc1		5.70
COc1ccc(S(=O)(=O)n2nc(OC(=O)c3cccs3)cc2N)cc1		6.16
COc1ccc(S(=O)(=O)n2nc(OC(=O)c3ccco3)cc2N)cc1		6.03
N#Cc1c(N2CCCC2)nc(N)c2c(N)nc(N3CCCC3)cc12		5.50
COc1ccc(S(=O)(=O)n2nc(OC(=O)c3ccccc3)cc2N)cc1		5.02
COc1ccc(N(CC(=O)NCC2CCCO2)S(=O)(=O)c2c(C)noc2C)cc1 (stereo unspecified)	> 50 µM (inactive)	
COc1ccc(C(=O)c2no[n+]([O-])c2C(=O)c2ccc(OC)cc2)cc1		4.94
O=S(=O)(/N=S1/CC=CCN1S(=O)(=O)c1ccccc1)c1ccccc1 (stereo unspecified)		5.03

Structure (SMILES)	IC50	pIC50
Nc1nonc1-c1nc2ccccc2n1Cc1ccc(F)cc1		4.47
CC(=O)NC(=O)NC1OC(=O)C(Cl)=C1Cl (stereo unspecified)		5.67
Nc1cc(OC(=O)c2cccs2)nn1S(=O)(=O)c1ccccc1		6.61
Cn1c(=O)c2c(-c3ccccc3)n(-n3cnnc3)cc2n(C)c1=O		5.93
CC1=C(C)CS(=O)N(S(=O)(=O)c2ccc(Cl)cc2)C1 (stereo unspecified)		5.38
O=C(OC(C(=O)NCc1cccs1)c1ccccn1)c1cccs1 (stereo unspecified)		5.20
CCN(C(=O)COc1cc(=O)n(C)c2ccccc12)c1cccc(Cl)c1	> 50 µM (inactive)	
O=C(Oc1oc(-c2ccco2)nc1C=Nc1ccccc1)c1ccco1		4.41
Nc1cc(OC(=O)c2cccs2)nn1S(=O)(=O)c1ccc(F)cc1		6.36
O=C(CNC(=O)c1ccco1)OCN1C(=O)c2ccccc2C1=O		5.07
CCSc1ccccc1C(=O)n1nnc2ccccc21		5.15
Nc1nc2n(n1)C1(CCCCC1)C1=C(CCCC1)N2		4.89
COc1cccc(Cn2c(-c3nonc3N)nc3ccccc32)c1		4.34
Cc1ccc(S(=O)(=O)n2nc(OC(=O)c3ccco3)cc2N)cc1		5.76
CCOc1ccc(CCNC(=O)Cn2c(-c3nonc3N)nc3ccccc32)cc1OCC	> 50 µM (inactive)	
CCCCc1[nH]nc2c1C1(C(=O)N(CC)c3ccccc31)C(C#N)=C(N)O2 (stereo unspecified)	> 50 µM (inactive)	
CCC(C)[C@@H](NC(=O)OC(C)(C)C)c1nnc(S(=O)(=O)Cc2cccc(C)c2)o1 (stereo partly specified)		5.68
CCn1nc(-c2ccccc2)nc2c(=O)n(C)c(=O)nc1-2		7.15
Nc1cc(OC(=O)c2ccco2)nn1S(=O)(=O)c1ccc(F)cc1		5.90
COc1ccc(S(=O)(=O)n2nc(OC(=O)c3ccc(C)cc3)cc2N)cc1		4.91
